Data reported in PMC6237300, “Influenza B viruses circulated during last 5 years in Mongolia” (PLoS ONE, 2018).

Assays:
[1] = target: NA of B/Ulaanbaatar/1113/2014 (I114T) (Influenza B virus, UniProt U5XBU0, I114T); format: biochemical
[2] = target: NA of B/Khentii/1137/2014 (G140R) (Influenza B virus, UniProt U5XBU0, G140R); format: biochemical
[3] = target: NA of B/Darkhan/1484/2014 (H101N, E105K) (Influenza B virus, UniProt U5XBU0, E105K/H101N); format: biochemical
[4] = target: NA of B/Ulaanbaatar/1495/2014 (E105K) (Influenza B virus, UniProt U5XBU0, E105K); format: biochemical
[5] = target: NA of B/Ulaanbaatar/1708/2014 (G104R) (Influenza B virus, UniProt U5XBU0, G104R); format: biochemical
[6] = system: neuraminidase of the influenza B virus with H273Y mutation; settings: cited from earlier work

SMILES | susceptibility category [1] | susceptibility category [2] | susceptibility category [3] | susceptibility category [4] | Fold increase [1] | IC50 [1] [nM] | Fold increase [2] | IC50 [2] [nM] | Fold increase [3] | IC50 [3] [nM] | Fold increase [4] | IC50 [4] [nM] | Fold increase [5] | IC50 [5] [nM] | resistance of H273Y mutant [6]
[H]/N=C(\N)N[C@H]1C=C(C(=O)O)O[C@@H]([C@H](OC)[C@H](O)CO)[C@@H]1NC(C)=O [Laninamivir, laninamivir] | sensitive | sensitive | reduced susceptibility | reduced susceptibility | – | – | – | – | – | – | – | – | – | – | –
CCC(CC)[C@H](NC(C)=O)[C@@H]1[C@H](O)[C@@H](C(=O)O)C[C@H]1N=C(N)N [Peramivir, peramivir] | reduced susceptibility | reduced susceptibility | highly reduced susceptibility | highly reduced susceptibility | 10 | 11.8 | 10 | 7.18 | 2500 | 1530 | 5000 | 3270 | >100000 | 288000 | resistant
